Experimental data taken from ChEMBL document CHEMBL5126611, “Design, Synthesis, and Biological Evaluations of Pyridyl 4,5,6,7-Tetrahydro-4,7-Methanobenzo[d]isoxazoles as Potent and Selective Inhibitors of 11β-Hydroxylase” (J Med Chem, 2022).
≈ marks a conversion by molar mass, not a printed value.

What was measured:
[1] = Terminal half life in Sprague-Dawley rat at 5 mg/kg, iv measured up to 24 hrs by LC-MS analysis; type: ADME, organism-based; conditions: in vivo, read-out: beta t1/2 (converted)
[2] = biological target: T1, Aromatase (Homo sapiens, UniProt P11511); experiment: Inhibition of human placental microsome CYP19 using [1beta-3H]-androstenedione as substrate; type: ADME, microsomes, Placenta
T1 sequence (P11511 whole entry): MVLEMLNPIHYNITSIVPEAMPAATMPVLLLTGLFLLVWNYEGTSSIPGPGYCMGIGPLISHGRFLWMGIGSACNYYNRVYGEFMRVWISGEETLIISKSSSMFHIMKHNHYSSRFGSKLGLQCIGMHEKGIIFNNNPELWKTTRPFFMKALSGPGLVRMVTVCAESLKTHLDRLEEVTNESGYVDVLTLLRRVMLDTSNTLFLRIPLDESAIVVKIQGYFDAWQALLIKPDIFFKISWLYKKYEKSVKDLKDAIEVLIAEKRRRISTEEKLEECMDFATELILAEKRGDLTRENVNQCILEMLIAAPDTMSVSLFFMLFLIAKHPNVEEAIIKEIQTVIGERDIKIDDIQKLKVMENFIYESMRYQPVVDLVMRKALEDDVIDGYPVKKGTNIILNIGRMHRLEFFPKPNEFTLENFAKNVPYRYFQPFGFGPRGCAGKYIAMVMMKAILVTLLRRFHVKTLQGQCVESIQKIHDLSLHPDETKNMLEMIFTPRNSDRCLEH

[3] = Clearance in Sprague-Dawley rat at 5 mg/kg, iv measured up to 24 hrs by LC-MS analysis; type: ADME, organism-based; conditions: in vivo
[4] = biological target: T2, Cytochrome P450 11B2, mitochondrial (Homo sapiens, UniProt P19099); experiment: Inhibition of human CYP11B2 expressed in Chinese hamster V79 MZh cells using [14C]-deoxycorticosteron as substrate measured after 6 hrs by phosphoimager analysis; type: ADME, cell-based
T2 sequence (P19099 whole entry): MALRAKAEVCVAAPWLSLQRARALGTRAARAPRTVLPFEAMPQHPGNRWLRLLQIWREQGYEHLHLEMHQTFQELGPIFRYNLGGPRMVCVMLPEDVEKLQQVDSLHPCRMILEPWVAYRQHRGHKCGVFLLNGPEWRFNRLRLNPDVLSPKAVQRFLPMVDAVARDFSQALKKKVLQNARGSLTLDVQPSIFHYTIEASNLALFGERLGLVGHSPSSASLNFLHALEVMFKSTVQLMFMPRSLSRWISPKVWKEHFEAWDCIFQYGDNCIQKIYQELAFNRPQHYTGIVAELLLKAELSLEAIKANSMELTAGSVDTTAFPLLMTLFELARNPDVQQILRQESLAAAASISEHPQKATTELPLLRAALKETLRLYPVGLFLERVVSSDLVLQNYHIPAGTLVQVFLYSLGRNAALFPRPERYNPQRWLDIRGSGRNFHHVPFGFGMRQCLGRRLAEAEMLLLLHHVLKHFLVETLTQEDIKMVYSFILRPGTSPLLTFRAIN

[5] = AUC (0 to infinity) in Sprague-Dawley rat at 5 mg/kg, iv measured up to 24 hrs by LC-MS analysis; type: ADME, organism-based; design: time < 24 hrs, dose 5 mg/kg, route iv; conditions: in vivo
[6] = Cytotoxicity against human HepG2 cells assessed as reduction in cell viability; type: toxicity, cell-based; conditions: read-out: LC50 (the source's name)
[7] = Reduction of cortisol elevation in Sprague-Dawley rat at 25 mg/kg, po measured after 4 hrs by liquid chromatography-tandem mass spectrometry analysis (reference value: 376+/- 22 ng/L); type: functional
[8] = Aqueous solubility of compound; type: physicochemical; conditions: buffer
[9] = Cmax in Sprague-Dawley rat at 5 mg/kg, iv measured up to 24 hrs by LC-MS analysis; type: ADME, organism-based; design: dose 5 mg/kg, time < 24 hrs, route iv; conditions: in vivo
[10] = biological target: Cytochrome P450 2C19 (Homo sapiens, UniProt P33261); experiment: Inhibition of human hepatic recombinant CYP2C19 using cocktail of substrate by LC-MS/MS analysis; type: ADME
Chain of Cytochrome P450 2C19 (P33261 whole entry): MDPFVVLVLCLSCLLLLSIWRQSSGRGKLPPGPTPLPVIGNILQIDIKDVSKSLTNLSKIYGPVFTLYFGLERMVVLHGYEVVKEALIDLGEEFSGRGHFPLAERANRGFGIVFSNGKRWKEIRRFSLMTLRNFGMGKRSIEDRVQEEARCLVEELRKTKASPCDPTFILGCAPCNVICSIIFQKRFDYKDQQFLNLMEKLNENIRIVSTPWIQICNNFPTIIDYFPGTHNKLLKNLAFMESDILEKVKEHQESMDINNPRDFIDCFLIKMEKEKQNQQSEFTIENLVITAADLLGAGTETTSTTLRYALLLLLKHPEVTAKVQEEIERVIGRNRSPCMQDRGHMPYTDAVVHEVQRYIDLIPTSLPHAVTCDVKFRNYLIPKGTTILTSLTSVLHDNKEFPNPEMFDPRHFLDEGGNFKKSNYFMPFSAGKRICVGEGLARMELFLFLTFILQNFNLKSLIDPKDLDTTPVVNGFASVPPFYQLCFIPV

[11] = Tmax in Sprague-Dawley rat at 5 mg/kg, iv measured up to 24 hrs by LC-MS analysis; type: ADME, organism-based; conditions: in vivo
[12] = Tmax in Sprague-Dawley rat at 25 mg/kg, po measured up to 24 hrs by LC-MS analysis; type: ADME, organism-based; conditions: in vivo
[13] = biological target: T3, Cytochrome P450 1A2 (Homo sapiens, UniProt P05177); experiment: Inhibition of human hepatic recombinant CYP1A2 using cocktail of substrate by LC-MS/MS analysis; type: ADME
T3 sequence (P05177 whole entry): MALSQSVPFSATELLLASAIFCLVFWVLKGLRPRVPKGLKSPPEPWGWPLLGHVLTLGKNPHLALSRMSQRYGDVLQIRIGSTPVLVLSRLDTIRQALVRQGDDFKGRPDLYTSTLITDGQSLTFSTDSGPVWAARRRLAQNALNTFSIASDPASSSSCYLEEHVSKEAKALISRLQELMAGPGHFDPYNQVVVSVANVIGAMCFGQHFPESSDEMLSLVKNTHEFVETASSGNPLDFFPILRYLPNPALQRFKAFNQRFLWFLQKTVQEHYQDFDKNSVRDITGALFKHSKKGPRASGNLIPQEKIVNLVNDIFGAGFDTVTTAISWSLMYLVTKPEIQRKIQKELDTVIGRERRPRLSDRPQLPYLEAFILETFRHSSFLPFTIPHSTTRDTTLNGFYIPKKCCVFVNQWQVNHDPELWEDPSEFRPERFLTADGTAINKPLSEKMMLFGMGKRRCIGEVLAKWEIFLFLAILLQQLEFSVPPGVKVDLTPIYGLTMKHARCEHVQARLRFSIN

[14] = Terminal half life in Sprague-Dawley rat at 25 mg/kg, po measured up to 24 hrs by LC-MS analysis; type: ADME, organism-based; conditions: in vivo, read-out: beta t1/2 (converted)
[15] = Cytotoxicity against Chinese hamster V79 cells assessed as reduction in cell viability; type: toxicity, cell-based, Cricetulus griseus; conditions: read-out: LC50 (the source's name)
[16] = Selectivity ratio of IC50 for inhibition of human CYP11B2 to IC50 for inhibition of human CYP11B1; type: ADME
[17] = biological target: T4, Cytochrome P450 11B1, mitochondrial (Rattus norvegicus, UniProt P15393); experiment: Inhibition of rat CYP11B1; type: ADME
T4 sequence (P15393 whole entry): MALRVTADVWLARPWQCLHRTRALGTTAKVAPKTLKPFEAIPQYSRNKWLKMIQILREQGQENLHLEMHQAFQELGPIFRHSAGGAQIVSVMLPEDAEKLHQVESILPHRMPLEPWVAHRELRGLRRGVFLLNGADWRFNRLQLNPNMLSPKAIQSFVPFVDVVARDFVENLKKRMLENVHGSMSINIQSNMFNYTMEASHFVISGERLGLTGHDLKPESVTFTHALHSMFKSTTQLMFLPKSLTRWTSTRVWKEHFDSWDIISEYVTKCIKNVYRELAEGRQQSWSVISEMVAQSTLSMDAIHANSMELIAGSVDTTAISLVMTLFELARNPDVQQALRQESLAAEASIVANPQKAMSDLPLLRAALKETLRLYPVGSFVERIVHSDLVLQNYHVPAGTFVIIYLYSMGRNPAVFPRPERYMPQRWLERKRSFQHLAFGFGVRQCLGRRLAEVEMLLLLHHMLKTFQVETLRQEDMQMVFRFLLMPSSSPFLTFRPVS

## O=C(Nc1ccc2[nH]ncc2c1)[C@]12ON=C(c3cccnc3)[C@H]1[C@@H]1CC[C@H]2C1
[1]
  half-life: 4.5 h
[2]
  IC50: > 10 µM
[3]
  CL: 0.287 mL/min/kg
[4]
  IC50: 1.12 µM
[5]
  AUC: 50928.7 ng·h/mL
[6]
  CC50: > 50 µM
[7]
  Activity: 28 ng/L
[8]
  solubility: 196 µM (≈ 73.2 µg/mL)
[9]
  Cmax: 12700 ng/mL
[10]
  IC50: > 10 µM
[11]
  Tmax: 0 h
[12]
  Tmax: 4.2 h
[13]
  IC50: > 10 µM
[14]
  half-life: 4.6 h
[15]
  CC50: > 50 µM
[16]
  Ratio IC50: 125
[17]
  IC50: 0.025 µM
